In patent US10960018B2, “Methods and compounds for stimulating read-through of premature termination codons” (The UAB Research Foundation, priority 2016, dated 2021):

Tests used:
Type in all cases: cell-based, Rat
FRT G542X cells = test: Transepithelial chloride conductance (TECC) assay in FRT G542X cells
Description: (§1) Stably transfected FRT cells as described herein cells were seeded onto Costar 24-well […] permeable supports at a density of ˜2×10^6 cells/filter and maintained at 37° C. with 5% CO2. Transepithelial resistance was assessed using an epithelial voltmeter to ensure the formation of tight monolayers, as defined by resistance >6 kcm^2. During initial evaluation of agents, cells were treated with compounds (10 μM), vehicle control (0.3% DMSO), or positive control (250 μg/mL G418) for 48 hours before transepithelial conductance (Gt) was assessed; subsequent studies used other concentrations of compounds. Measurements were taken at baseline, after the addition of 20 μM forskolin (FSK, a cAMP agonist that stimulates CFTR activity) and 10 μM CFTRInh-172 (a CFTR-specific inhibitor).
In the TECC assay, FRT G542X cells were treated with a single dose (10 μM) of each compound. FRT G542X cells were incubated for 48 hours with the compounds prior or vehicle control (0.3% DMSO). During the assay the baseline conductance (Gt) was initially determined prior to the acute addition of forskolin (20 μM) and VX-770 (10 μM) to stimulate CFTR activity; the CFTR inhibitor, CFTRInh-172 (10 μM), was added to inhibit CFTR activity at the end of the assay. In these experiments, an increase in CFTR conductance indicates the compounds stimulated read-through of the PTC in the constructs tested and that the CFTR was functional.
To prioritize which of the 48 read-through-positive compounds identified would be most efficacious in augmenting PTC read-through and restoring protein function, the TECC assay was repeated (in triplicate) using FRT G542X cells and FRT cells without CFTR (parental cells). Compounds (10 μM) or vehicle control (0.3% DMSO) were incubated for 48 hours with the cells. During the assay the baseline conductance (Gt) was initially determined prior to the acute addition of forskolin (20 μM) and VX-770 (10 μM) to stimulate CFTR activity; the CFTR inhibitor, CFTRInh-172 (10 μM), was added to inhibit CFTR activity at the end of the assay. G418 (250 μg/ml) was used as a positive control. In this assay, an increase in CFTR conductance indicates the compound stimulated read-through of the PTC in the constructs tested and that the CFTR was functional. The 48 compounds tested are provided in the Table 1 below (with the numerical designations corresponding to those shown in FIG. 4).
A series of functional assays was performed to evaluate the efficacy of these lead compounds in greater detail. Using FRT G542X cells, the optimal dose of each compound in augmenting chloride conductance (FIG. 5A) was determined. FRT G542X cells were incubated with compound (1 μM to 30 μM), G418 (250 μg/mL) or vehicle control (0.3% DMSO) for 48 hours. The conductance assay was conducted as described in Example 2 above. In this assay, an increase in CFTR conductance indicates the compounds stimulated read-through of the PTC in the constructs tested and that the CFTR was functional.

[1] = tested on: FRT wild-type CFTR control cells; test: Firefly luciferase reporter assay, wild-type control; details: 300 to 500 μg/ml, 24 hours
Description: The luciferase assay was performed on a Pharmakon 1600 library to determine the efficacy of each compound in promoting read-through. 5 ul of each compound as a DMSO stock solution were dissolved in F-12 Ham medium and dispensed into separate wells of 384-well plates (Corning) using a BioMek FX. FRT cells (10,000 cells/well) containing the reporter gene construct (QXN UGAC) were then added using the Matrix WellMate. The plates were incubated for 24 hours at 37° C., 5% CO2, and 95% humidity, after which firefly luciferase activity was determined by equilibrating the plates to room temperature, adding an equal volume of Promega BrightGlo (Promega), and reading enhanced luminescence with an Envision Plate Reader (PerkinElmer) within 5 minutes. […]
To validate these cell lines, the cell lines were treated with G418, a read-through agent with established efficacy in vitro (Bedwell D M, et al.; Nat Med; 3:1280-1284; 1997), at doses up to from 300 to 500 μg/ml. An increase in luciferase activity indicates G418 stimulated read-through of the PTC in the constructs tested. […] For screening purposes, firefly luciferase levels were measured without assessment of Renilla expression as an indication of total construct expression.

FRT W1282X cells = test: Transepithelial chloride conductance assay in FRT W1282X cells; details: 48 hours; escin 10 μM, G418 250 μg/ml, VX-770 10 μM, VX-809 6 μM, NMDI-14 20 μg/ml, tobramycin 150, gentamicin 250 μg/ml
Description: as §1
Individual assays were performed as described herein.
As previously reported in the literature, the combination of CFTR correctors (such as VX-809) and CFTR potentiators (such as VX-770) act synergistically to improve CFTR function. […] Compounds alone or in the indicated combination were pre-incubated with FRT W1282X cells for 48 hours. During the assay the baseline conductance (Gt) was initially determined prior to the acute addition of forskolin (20 μM) and VX-770 (10 μM) to stimulate CFTR activity; the CFTR inhibitor, CFTRInh-172 (10 μM), was added to inhibit CFTR activity at the end of the assay. Enhancement of PTC read-through by the compounds of the present disclosure was determined by an increase in CFTR conductance. CFTR conductance also indicated the CFTR was functional as a result of the read-through of the PTC.
Compounds alone or in the indicated combination were pre-incubated with FRT G542X cells for 48 hours. […] Enhancement of PTC read-through by the compounds of the present disclosure was determined by an increase in CFTR conductance. CFTR conductance also indicated the CFTR was functional as a result of the read-through of the PTC.
It has been reported that aminoglycosides interfere with the action read-through stimulating compound. […] CFTR conductance also indicated the CFTR was functional as a result of the read-through of the PTC.
Stimulation of CFTR activity was determined by an increase in CFTR conductance. […] During the assay the baseline conductance (Gt) was initially determined prior to the acute addition of forskolin (20 μM) and GP-5 (10 μM) to stimulate CFTR activity; the CFTR inhibitor, […] (10 μM), was added to inhibit CFTR activity at the end of the assay.
The effect of the read-through stimulating compounds of the present disclosure in combination with the CFTR corrector VX-809 was further examined in FRT cells with the G542X, Y122X and W1282X mutations. […] CFTR conductance also indicated the CFTR was functional as a result of the read-through of the PTC.

CN[C@@H]1[C@@H](O)[C@@H](O[C@@H]2[C@@H](O)[C@H](O[C@H]3O[C@H]([C@@H](C)O)[C@@H](O)[C@H](O)[C@H]3N)[C@@H](N)C[C@H]2N)OC[C@]1(C)O [G418, geneticin]
incubation time of maximal effect on forskolin-induced conductance (FRT G542X cells; 250 μg/ml, 0 to 72 hours): 72 h | signal intensity at 48 hrs pre-incubation (FRT G542X cells; 250 μg/ml, relative to maximal effect at 72 hrs): > 75% | firefly luciferase activity compared to DMSO-treated vehicle [1]: no significant effect

NC[C@H]1O[C@H](O[C@H]2[C@H](O)[C@@H](O[C@H]3O[C@H](CO)[C@@H](O)[C@H](N)[C@H]3O)[C@H](N)C[C@@H]2N)[C@H](N)C[C@@H]1O [tobramycin]
CFTR function (conductance) in presence of forskolin and VX-770 (FRT W1282X cells): did not stimulate CFTR function

CCOC(=O)c1c(NC(=O)CC2Nc3cc(C)c(C)cc3NC2=O)sc(C)c1C (stereo not drawn) [NMDI-14]
CFTR function (conductance) in presence of VX-770 and forskolin (FRT G542X cells; 48 hours, escin 10 μM, NMDI-1 80 μg/ml, NMDI-14 20 μg/ml): significantly increased | CFTR function (conductance) in presence of forskolin and VX-770 (FRT W1282X cells): significantly increased
